In brackets after ≈: the same amount, converted by molar mass.
Conditions: buffer; pH 7.4; 200.0 µM

SMILES	solubility kinetic [µg/mL]
Cn1c(=O)c2c(nc(NN=C3CCCC3)n2C)n(C)c1=O	> 43.5
CNC(=O)c1ccccc1S(=O)c1ccccc1COC(C)=O (stereo not drawn)	> 49.7
CCOC(=O)c1c(O)c2ccccc2n(C)c1=O	> 37.1
CCc1cc(C(=O)N2CCCc3ccccc32)sc1C	9.7 (≈ 34 µM)
Cc1ccccc1N1CCN(Cc2ccc3c(c2)OCO3)CC1	21.5 (≈ 69.3 µM)
O=C(c1cccc2nc3ccccc3nc12)N1CCOCC1	40.9 (≈ 139 µM)
COC(=O)Cn1cc(C=C2C(=O)NC(=O)NC2=O)c2ccccc21	8.6 (≈ 26.3 µM)
Cc1ccc(S(=O)(=O)/N=C(\N)c2ccc(F)cc2)cc1	38.1 (≈ 130 µM)
O=C1CNC(=S)N1CCOc1ccccc1	30.4 (≈ 129 µM)
O=C(Cc1ccccc1)NCc1ccccn1	> 33.9
CCCNC(=S)N1CCC(NC(=O)c2ccc(OC)cc2)CC1	20.3 (≈ 60.5 µM)
CN(C(=O)Nc1cnccc1C(F)(F)F)C1CCCCC1	41.1 (≈ 136 µM)
N#Cc1cc2ccccc2nc1SCC(=O)NC1CC1	3.2 (≈ 11.3 µM)
COCc1cc(C)nc(OC)c1C(N)=O	23.9 (≈ 114 µM)
O=C(O)CC1SC(=O)N(CC(=O)c2ccccc2)C1=O (stereo not drawn)	> 44
Cc1cccc(N(CC(=O)N2CCCC2)S(C)(=O)=O)c1	43.5 (≈ 147 µM)
COc1ccccc1OCC(O)COC(N)=O (stereo not drawn)	29.9 (≈ 124 µM)
Cl.O=C(COc1ccc(F)cc1)NCCCn1ccnc1	39.1
CNC(=O)OCCSCCS(=O)(=O)c1ccc(Cl)cc1	16.6 (≈ 49.1 µM)
Cn1ccnc1SCC(=O)c1ccc(F)cc1	32.3 (≈ 129 µM)
CN(CC(=O)O)S(=O)(=O)c1ccc2oc3ccccc3c2c1	40.1 (≈ 126 µM)
OCCC1CN(Cc2nc3ccccc3[nH]2)CCN1C1CCCC1 (stereo not drawn)	> 49.3

SMILES	solubility kinetic [µg/mL]
CC(=O)Nc1ccc(NC(=O)c2ccccc2Nc2ccccc2)cc1	4.4 (≈ 12.7 µM)
O=C(COC(=O)/C=C/c1cccc(F)c1)Nc1ccc(Cl)cn1	5 (≈ 14.9 µM)
COc1cccc(C=NCCCN=Cc2cccc(OC)c2O)c1O	> 51.4
CNC(=S)Nc1cc2oc3ccccc3c2cc1OC	33.7 (≈ 118 µM)
Cc1ccc(Nc2cc(=O)[nH]c(=O)[nH]2)cc1Cl	2 (≈ 7.95 µM)
O=c1[nH]c(=O)n(CCc2ccccc2)c(O)c1C=NC1CC1	10.3 (≈ 34.4 µM)
O=C(NC1CCCC1)c1cc(-c2cccc(Cl)c2)on1	1.5 (≈ 5.16 µM)
O=C(CN1C(=O)COc2ccccc21)NCCN1CCOCC1	> 47.9
Cc1onc(-c2ccccc2)c1C(=O)Nc1cccc(S(=O)(=O)N2CCCCC2)c1	2.5 (≈ 5.88 µM)
COc1ccc(CCNS(=O)(=O)c2ccc3[nH]c(=O)[nH]c3c2)cc1	11.3 (≈ 32.5 µM)
O=C(CNC(=O)c1ccccc1)NCC(=O)OCC(=O)c1ccccc1Cl	50.1 (≈ 129 µM)
CCOC(=O)C1CCCN(C(=O)c2cc(-c3ccco3)nc3ccccc23)C1 (stereo not drawn)	> 56.8
O=C(NCC1COc2ccccc2O1)C1(c2ccccc2)CCCC1 (stereo not drawn)	17.8 (≈ 52.8 µM)
C=CCNc1nc(N)c([N+](=O)[O-])c(NCCO)n1	> 38.1
COc1ccc(OCCNC(=O)c2ccccc2Cl)cc1	> 45.9
N#Cc1cccc(C(=O)Nc2ccc(S(=O)(=O)Nc3nccs3)cc2)c1	> 57.7
Cc1cccc(NC(=O)N2CCCc3ccccc32)c1C	13.2 (≈ 47.1 µM)
O=C(NCCCO)C(=O)NCc1ccncc1	> 35.6
Cc1cccc(C(=O)OCC(=O)NCc2ccc3c(c2)OCO3)c1C	14.5 (≈ 42.5 µM)
Cc1ccc(S(=O)(=O)N2CCN(c3ncnc4scc(-c5ccccc5)c34)CC2)cc1	0.9 (≈ 2 µM)
Cc1ccccc1OCCC(=O)Nc1ccccc1C(=O)N1CCCCC1	52.7 (≈ 144 µM)
Fc1ccc(Oc2ccnc(Cl)n2)c(Cl)c1	16.9 (≈ 65.2 µM)

SMILES	solubility kinetic [µg/mL]
O=C(NCCCNC(=O)c1cnccn1)c1ccc(Cl)cc1	> 47.8
CC(=O)C(C)Oc1ccc(Cc2ncc(C(F)(F)F)cc2Cl)cc1 (stereo not drawn)	13.1 (≈ 36.6 µM)
CCOC(=O)C1CCN(S(=O)(=O)c2c(C)noc2C)CC1	26.8 (≈ 84.7 µM)
CC1(C)CC(=O)C(C(N)=NC(=O)c2ccc([N+](=O)[O-])cc2)=C(O)C1	0.7 (≈ 2.11 µM)
Cl.O=C(COc1ccc(F)cc1)NCCN1CCCC1	> 45.4
O=C(c1ccc(S(=O)(=O)NCc2ccco2)cc1)N1CCN(c2ccccc2)CC1	9.1 (≈ 21.4 µM)
Cn1c(=O)c2c(ncn2CCC(=O)N/N=C/c2ccccc2)n(C)c1=O	> 53.2
CCOc1cccc(OCCCCn2cnc3ccccc3c2=O)c1	3.4 (≈ 10 µM)
Cc1noc(C)c1NC(=O)NCCN1CCN(Cc2ccccc2)CC1	> 53.6
Cc1cc(=O)[nH]c(Nc2ccccc2C)n1	> 32.3
O=C(O)/C=C/c1cccnc1	> 22.4
Cc1cc(NC(=O)c2ccc(F)cc2)no1	20.7 (≈ 94 µM)
CC(c1ccccc1)N1C(=O)c2cccnc2C1=O (stereo not drawn)	32.6 (≈ 129 µM)
Cc1cc(C(=O)O/N=C(\N)c2ccncc2)ccc1[N+](=O)[O-]	25.1 (≈ 83.6 µM)
Cc1ccc(NC(=O)CN(C)C(=O)CSc2ccccc2F)cc1	5.2 (≈ 15 µM)
CCP(=O)(c1cccc([N+](=O)[O-])c1)c1cccc([N+](=O)[O-])c1	> 48
Cc1ccc(C)c(CN2C(=O)COc3ccccc32)c1	2.8 (≈ 10.5 µM)
Cc1cc(C)c(NC(=O)Cn2c([N+](=O)[O-])cnc2C)c(C)c1	4.1 (≈ 13.6 µM)
N#CCn1c(CN2CCCC2)nc2ccccc2c1=O	38.6 (≈ 144 µM)
Cc1cc(C)c2ccc3c(C)c(C)n(C)c3c2n1	< 0.3
O=C(NC12CC3CC(CC(C3)C1)C2)N1CCN(C2CCCCC2)CC1	42.4 (≈ 123 µM)
CC(=O)N1c2ccccc2C2(C)C(C1(C)C)C2(Cl)Cl (stereo not drawn)	6.1 (≈ 20.5 µM)

SMILES	solubility kinetic [µg/mL]
CCN(CC)c1c([N+](=O)[O-])c(=O)n(C)c2ccccc12	24.9 (≈ 90.4 µM)
COc1cccc(C(=O)Nc2cc(C)nn2-c2ccccc2)c1OC	> 50.6
Cc1ccc(Sc2cc(C)nc(-c3ccccn3)n2)cc1	36.8 (≈ 125 µM)
Cc1cc2c(SCC(=O)NCC3CCCO3)ncnc2s1 (stereo not drawn)	> 48.5
O=C(O)CC(NC(=O)C1CCCCC1)c1cc([N+](=O)[O-])ccc1Cl (stereo not drawn)	> 53.2
Cc1ccc(C(=O)N2CCN(c3ncccn3)CC2)c(C)c1	27.5 (≈ 92.8 µM)
Cc1cccc(OC(=O)c2cccnc2)c1C	25 (≈ 110 µM)
COc1ccc(-c2cc(C(=O)Nc3ccc(C)c(C)c3)no2)cc1	< 0.3
S=C(c1ccccc1)N1CCSCC1	> 33.5
Cc1ccccc1NC(=O)CCN1CCCC1.Cl	> 40.3
CCCCCCNc1nc(Cl)nc(NC(C)(C)CO)n1	3.1 (≈ 10.3 µM)
CC(=O)Oc1ccc(C2(C)CC(C)(C)NC(=S)N2C)c(OC(C)=O)c1 (stereo not drawn)	> 54.7
O=C(CN1CCCC1)Nc1cc(C(F)(F)F)ccc1Cl	18.1 (≈ 59 µM)
C=C(C)c1cccc(C(C)(C)NC(=O)NCc2ccncc2)c1	> 46.4
Cc1noc(COc2ccccc2OCC(N)=O)n1	> 39.5
O=C(COc1cccc(F)c1)Nc1nc(-c2cccnc2)cs1	7.3 (≈ 22.2 µM)
O=C(O)CCCC(=O)Nc1nncs1	> 32.3
O=C(O)c1ccc(S(=O)(=O)Nc2ccc3c(c2)OCCO3)cc1	41.5 (≈ 124 µM)
O=C(NCc1ccccn1)C(=O)Nc1cc2c3c(c1)CC(=O)N3CCC2	> 52.6
NC(=S)c1cc2cc(Br)ccc2oc1=O	< 0.6
O=C(CN1CCCC1)OCCCC1CCCCC1	17.9 (≈ 70.6 µM)
Cc1ccc2nc3c(nc2c1C)CCCC3	7.1 (≈ 33.4 µM)

— PubChem BioAssay AID1996
